Columns and labels:
Experiment in all cases: in-line probing
[1] = tested on: 95 Csp (RNA, riboswitch) GGAAUGCUUCCUCCGCCACCGGGCGGAGGGUGAAAAGCGUCCACGGUCUCCCGUAGGUACGGCGCGCUCUGCGCGUUACAAGGGAGCCGCGGGCG; settings: 100 mM KCl, 20 mM MgCl2, 50 mM Tris-HCl pH 8.3 (23 °C), ~48 h
[2] = tested on: 95 Dsu (RNA, riboswitch) GGAAACUCUUCCCUGUCACCGGAUAGGGAGCCAAGAGGGUUUAUUCCUGCUGCAGGUAAUAUGGCGAAAACCAUUGAAAGGCAGGAAUAAAUCCU; settings: 100 mM KCl, 20 mM MgCl2; 50 mM Tris-HCl pH 8.3 (23 °C), ~48 h; highest concentration 10 mM
[3] = tested on: 95 Csp M2 (RNA, riboswitch) GGAAUGCUUCCUCCGCCACCGGGCGGAGGGUGAAAAGCGUCCACGGUCUCCCGUAGGAACGGCGCGCUCUGCGCGUUACAAGGGAGCCGCGGGCG; settings: 100 mM KCl, 20 mM MgCl2; 50 mM Tris-HCl pH 8.3 (23 °C), ~48 h; highest concentration 10 mM; modulation almost eliminated
[4] = tested on: 105 Mja (RNA, riboswitch) GGAACACCGCUUCUGUCACCGGACAGGAGAAAUGGGGUGUCUGGGAGUUGUCGUAGGUACGGUAUGGUUGCAUGCUAUAAGACAAUUCCUGGGCACCCCUGUUUU; settings: 100 mM KCl, 20 mM MgCl2; 50 mM Tris-HCl pH 8.3 (23 °C), ~48 h; highest concentration 10 mM
[5] = tested on: 81 Csp (RNA, riboswitch) GGAAUGCUUCCUCCGCCACCGGGCGGAGGGUGAAAAGCGUCCACGGUCUCCCGUAGGUACGGCGCGCUCUGCGCGUUACAA; settings: 100 mM KCl, 20 mM MgCl2; 50 mM Tris-HCl pH 8.3 (23 °C), ~48 h; weaker than 95 Csp
[6] = highest concentration not stated
[7] = weaker than guanidine, data not shown

SMILES | binding [1, 6] | binding [1, 7] | further results
N=C(N)NCCC[C@H](N)C(=O)O | no |  | 
N=C(N)NO |  | weak | 
N=C(N)NOCC[C@H](N)C(=O)O | no |  | 
N=C(N)NCCCCN | no |  | 
CNC(=N)N |  | weak | 
N=C(N)N |  |  | binding ([1]; 0.61 µM-20 mM, no saturation, modulation above 1 mM): weak; binding [2]: no; binding [3]: weak; binding [4]: no; binding [5]: weak
